{"source": "paper PMC12655351", "about": "“Synthesis and Anticancer Activity Evaluation of New 5-((5-Nitrofuran-2-yl)allylidene)-2-thioxo-4-thiazolidinones” (Pharmaceuticals, 2025)", "key": {"[1]": {"tested_on": "MCF-7", "experiment": "[3H]-thymidine incorporation assay", "type": "cell-based", "details": "Homo sapiens, MCF7; MCF-7, 24 h of treatment", "method_in_brief": "(§1)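 Cells treated 24 h with compound at 1, 5, 10 μM (MCF-7) or 5, 15, 30 μM (MDA-MB-231), in triplicate, then pulsed with 0.5 μCi [3H]-thymidine for 4 h at 37 °C. TCA-precipitated, lysed cells counted by scintillation; uptake expressed as percent of control.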"}, "[2]": {"tested_on": "MDA-MB-231", "experiment": "[3H]-thymidine incorporation assay", "type": "cell-based", "details": "Homo sapiens; MDA-MB-231, 24 h of treatment", "method_in_brief": "as §1"}, "[3]": {"tested_on": "CCRF-CEM", "details": "48 h"}, "[4]": {"tested_on": "MOLT-4", "details": "MOLT-4, 48 h"}, "[5]": {"tested_on": "SF-539", "details": "SF-539, 48 h"}, "[6]": {"tested_on": "SK-MEL-28", "details": "SK-MEL-28, 48 h"}, "[7]": {"tested_on": "TK-10", "details": "TK-10, 48 h"}, "[8]": {"tested_on": "PC-3", "details": "PC-3, 48 h"}, "[9]": {"tested_on": "Leukemia", "details": "Leukemia subpanel"}, "[10]": {"tested_on": "Non-small cell lung cancer", "details": "Non-small cell lung cancer subpanel"}, "[11]": {"tested_on": "CNS cancer", "details": "CNS cancer subpanel"}, "[12]": {"tested_on": "K-562", "experiment": "cells", "details": "Homo sapiens, K562, 48 h"}, "[13]": {"tested_on": "SR", "experiment": "cells", "details": "Homo sapiens, 48 h"}, "[14]": {"tested_on": "HCT-116", "experiment": "cells", "details": "Homo sapiens, HCT-116, 48 h"}, "[15]": {"tested_on": "A498", "experiment": "cells", "details": "Homo sapiens, A498, 48 h"}, "[16]": {"tested_on": "UO-31", "experiment": "cells", "details": "Homo sapiens, UO-31, 48 h"}, "[17]": {"tested_on": "DU-145", "experiment": "cells", "details": "Homo sapiens, DU-145, 48 h"}, "[18]": {"tested_on": "BT-549", "experiment": "cells", "details": "Homo sapiens, BT-549, 48 h"}, "[19]": {"tested_on": "Leukemia", "experiment": "cells", "details": "Homo sapiens"}, "[20]": {"tested_on": "Non-small cell lung cancer", "experiment": "cells", "details": "Homo sapiens"}, "[21]": {"tested_on": "Breast cancer", "experiment": "cells", "details": "Homo sapiens"}, "[22]": {"tested_on": "HOP-92", "experiment": "NCI-60 SRB screen", "details": "HOP-92, 48 h"}, "[23]": {"tested_on": "NCI-H266", "experiment": "NCI-60 SRB screen"}, "[24]": {"tested_on": "SF-295", "experiment": "NCI-60 SRB screen", "details": "SF-295, 48 h"}, "[25]": {"tested_on": "MALME-3M", "experiment": "NCI-60 SRB screen", "details": "48 h"}, "[26]": {"tested_on": "UACC-62", "experiment": "NCI-60 SRB screen", "details": "UACC-62, 48 h"}, "[27]": {"tested_on": "IGROV1", "experiment": "NCI-60 SRB screen"}, "[28]": {"tested_on": "Colon cancer", "experiment": "NCI-60 SRB screen, subpanel"}}, "data": [{"smiles": "CCCC(C(=O)O)N1C(=O)/C(=C/C=C/c2ccc([N+](=O)[O-])o2)SC1=S", "note": "(centres unmarked) [4b, 2-((Z)-5-((E)-3-(5-Nitrofuran-2-yl)allylidene)-4-oxo-2-thioxothiazolidin-3-yl)pentanoic acid]", "values": [{"measurement": "IC50", "setting": "[1]", "result": 6.13, "unit": "µM"}, {"measurement": "IC50", "setting": "[2]", "result": 3.66, "unit": "µM"}, {"measurement": "TGI", "setting": "[3]", "result": 7.26, "unit": "µM"}, {"measurement": "TGI", "setting": "[4]", "result": 14.4, "unit": "µM"}, {"measurement": "TGI", "setting": "[5]", "result": 4.77, "unit": "µM"}, {"measurement": "TGI", "setting": "[6]", "result": 3.51, "unit": "µM"}, {"measurement": "TGI", "setting": "[7]", "result": 8.16, "unit": "µM"}, {"measurement": "TGI", "setting": "[8]", "result": 10.7, "unit": "µM"}, {"measurement": "MG_MID TGI", "setting": "[9]", "result": 9.43, "unit": "µM"}, {"measurement": "MG_MID TGI", "setting": "[10]", "result": 6.56, "unit": "µM"}, {"measurement": "MG_MID TGI", "setting": "[11]", "result": 4.46, "unit": "µM"}, {"measurement": "GI50", "setting": "[12]; K-562, 48 h", "result": 2.77, "unit": "µM"}, {"measurement": "CC50", "setting": "[12]; read-out: LC50", "result": "> 100", "unit": "µM"}, {"measurement": "GI50", "setting": "[13]", "result": 1.86, "unit": "µM"}, {"measurement": "CC50", "setting": "[13]; read-out: LC50", "result": "> 100", "unit": "µM"}, {"measurement": "GI50", "setting": "[14]", "result": 1.82, "unit": "µM"}, {"measurement": "GI50", "setting": "[15]", "result": 2.24, "unit": "µM"}, {"measurement": "GI50", "setting": "[16]", "result": 1.63, "unit": "µM"}, {"measurement": "CC50", "setting": "[16]; read-out: LC50, UO-31, 48 h", "result": 6.78, "unit": "µM"}, {"measurement": "GI50", "setting": "[17]", "result": 2.42, "unit": "µM"}, {"measurement": "CC50", "setting": "[17]; read-out: LC50, DU-145, 48 h", "result": 22.8, "unit": "µM"}, {"measurement": "GI50", "setting": "[18]", "result": 1.67, "unit": "µM"}, {"measurement": "CC50", "setting": "[18]; read-out: LC50, BT-549, 48 h", "result": 6.77, "unit": "µM"}, {"measurement": "GI50", "setting": "[19]; read-out: MG_MID GI50", "result": 2.36, "unit": "µM"}, {"measurement": "CC50", "setting": "[19]; read-out: MG_MID LC50", "result": "> 100", "unit": "µM"}, {"measurement": "GI50", "setting": "[20]; read-out: MG_MID GI50", "result": 2.37, "unit": "µM"}, {"measurement": "CC50", "setting": "[20]; read-out: MG_MID LC50", "result": 29.3, "unit": "µM"}, {"measurement": "GI50", "setting": "[21]; read-out: MG_MID GI50", "result": 1.85, "unit": "µM"}, {"measurement": "CC50", "setting": "[21]; read-out: MG_MID LC50", "result": 38.3, "unit": "µM"}, {"measurement": "TGI", "setting": "[22]", "result": 7.69, "unit": "µM"}, {"measurement": "GI50", "setting": "[22]; Homo sapiens", "result": 2.63, "unit": "µM"}, {"measurement": "CC50", "setting": "[22]; Homo sapiens, read-out: LC50, HOP-92, 48 h", "result": 31.9, "unit": "µM"}, {"measurement": "GI50", "setting": "[23]; Homo sapiens, 48 h, NCI-H266, 48 h", "result": 2.62, "unit": "µM"}, {"measurement": "CC50", "setting": "[23]; Homo sapiens, 48 h, read-out: LC50, NCI-H266, 48 h", "result": 78.9, "unit": "µM"}, {"measurement": "TGI", "setting": "[23]; NCI-H266, 48 h", "result": 7.83, "unit": "µM"}, {"measurement": "GI50", "setting": "[24]; Homo sapiens", "result": 2.2, "unit": "µM"}, {"measurement": "CC50", "setting": "[24]; Homo sapiens, read-out: LC50, SF-295, 48 h", "result": 25.7, "unit": "µM"}, {"measurement": "TGI", "setting": "[24]", "result": 6.76, "unit": "µM"}, {"measurement": "GI50", "setting": "[25]; Homo sapiens, Malme-3M", "result": 1.8, "unit": "µM"}, {"measurement": "CC50", "setting": "[25]; Homo sapiens, Malme-3M, read-out: LC50, MALME-3M, 48 h", "result": 6.4, "unit": "µM"}, {"measurement": "TGI", "setting": "[25]; MALME-3M", "result": 3.40, "unit": "µM"}, {"measurement": "GI50", "setting": "[26]; Homo sapiens", "result": 1.5, "unit": "µM"}, {"measurement": "CC50", "setting": "[26]; Homo sapiens, read-out: LC50, UACC-62, 48 h", "result": 5.9, "unit": "µM"}, {"measurement": "TGI", "setting": "[26]", "result": 2.98, "unit": "µM"}, {"measurement": "GI50", "setting": "[27]; Homo sapiens, IGROV-1, 48 h, IGROV1, 48 h", "result": 1.94, "unit": "µM"}, {"measurement": "CC50", "setting": "[27]; Homo sapiens, IGROV-1, 48 h, read-out: LC50, IGROV1, 48 h", "result": 7.75, "unit": "µM"}, {"measurement": "TGI", "setting": "[27]; IGROV1, 48 h", "result": 3.87, "unit": "µM"}, {"measurement": "MG_MID TGI", "setting": "[28]; Colon cancer subpanel", "result": 3.41, "unit": "µM"}, {"measurement": "GI50", "setting": "[28]; Homo sapiens, read-out: MG_MID GI50", "result": 1.73, "unit": "µM"}, {"measurement": "CC50", "setting": "[28]; Homo sapiens, read-out: MG_MID LC50", "result": 6.48, "unit": "µM"}]}]}
